Calls of active or inactive are those of the source. No cut-off for these calls is given here.
How the values were obtained:
[1] = target: T1, Nuclear receptor ROR-gamma (Homo sapiens, UniProt P51449); experiment: Inverse agonist activity at N-terminal 6-His-tagged/APC-labeled human RORgammat LBD extracted from Escherichia coli assessed as inhibition of europium-labeled SRC-1 recruitment incubated for 3 hrs by TR-FRET analysis
T1 sequence (P51449 whole entry): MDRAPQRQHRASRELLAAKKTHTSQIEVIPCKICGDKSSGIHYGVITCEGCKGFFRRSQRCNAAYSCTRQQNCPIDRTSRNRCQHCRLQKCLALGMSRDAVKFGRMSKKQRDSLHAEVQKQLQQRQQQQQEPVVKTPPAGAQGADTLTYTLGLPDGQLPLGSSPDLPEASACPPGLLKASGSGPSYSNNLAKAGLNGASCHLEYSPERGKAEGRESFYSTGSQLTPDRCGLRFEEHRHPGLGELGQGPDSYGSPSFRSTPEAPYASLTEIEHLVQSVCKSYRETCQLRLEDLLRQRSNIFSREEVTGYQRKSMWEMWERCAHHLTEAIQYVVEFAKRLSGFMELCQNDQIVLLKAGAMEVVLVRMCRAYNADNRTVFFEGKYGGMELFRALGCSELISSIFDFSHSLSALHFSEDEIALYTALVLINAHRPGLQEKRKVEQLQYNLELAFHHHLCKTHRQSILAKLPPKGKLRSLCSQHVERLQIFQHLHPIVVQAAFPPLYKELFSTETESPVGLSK

[2] = target: T1, Nuclear receptor ROR-gamma; experiment: Inverse agonist activity at GAL4 DNA-binding domain fused RORgamma (unknown origin) transfected in HEK293T cells co-transfected with GAL4-promoter driven luciferase reporter gene assessed as inhibition of RORgammat transcription incubated for 18 to 20 hrs by plate reader analysis; assay type: cell-based
[3] = Half-life in male DBA/1 mouse at 5 mg/kg, iv measured after 24 hrs by HPLC analysis; assay type: ADME, organism-based; conditions: in vivo
[4] = Tmax in male DBA/1 mouse at 5 mg/kg, iv measured after 24 hrs by HPLC analysis; assay type: ADME, organism-based; conditions: in vivo
[5] = Cmax in male DBA/1 mouse at 5 mg/kg, iv measured after 24 hrs by HPLC analysis; assay type: ADME, organism-based; conditions: in vivo
[6] = AUC (0 to t) in male DBA/1 mouse at 5 mg/kg, iv measured after 24 hrs by HPLC analysis; assay type: ADME, organism-based; conditions: in vivo
[7] = AUC (0 to infinity) in male DBA/1 mouse at 5 mg/kg, iv measured after 24 hrs by HPLC analysis; assay type: ADME, organism-based; conditions: in vivo
[8] = Clearance in male DBA/1 mouse at 5 mg/kg, iv measured after 24 hrs by HPLC analysis; assay type: ADME, organism-based; conditions: in vivo
[9] = Half-life in male DBA/1 mouse at 20 mg/kg, po measured after 24 hrs by HPLC analysis; assay type: ADME, organism-based; conditions: in vivo
[10] = Tmax in male DBA/1 mouse at 20 mg/kg, po measured after 24 hrs by HPLC analysis; assay type: ADME, organism-based; conditions: in vivo
[11] = Cmax in male DBA/1 mouse at 20 mg/kg, po measured after 24 hrs by HPLC analysis; assay type: ADME, organism-based; conditions: in vivo
[12] = AUC (0 to t) in male DBA/1 mouse at 20 mg/kg, po measured after 24 hrs by HPLC analysis; assay type: ADME, organism-based; conditions: in vivo
[13] = AUC (0 to infinity) in male DBA/1 mouse at 20 mg/kg, po measured after 24 hrs by HPLC analysis; assay type: ADME, organism-based; conditions: in vivo
[14] = Oral bioavailability in male DBA/1 mouse at 20 mg/kg measured after 24 hrs by HPLC analysis; assay type: ADME, organism-based; conditions: in vivo
[15] = Toxicity in imiquimod-induced psoriasis-like skin inflammation Balb/c mouse model assessed as change in body weight at 10 mg/kg, IG preadministered with IMQ for 3 days followed by compound administration from day 4 and measured on day 14; assay type: organism-based; conditions: in vivo, po, 264 h, time 11 day
[16] = test system: Mus musculus; experiment: (§1) Antiinflammatory activity against imiquimod-induced psoriasis-like skin inflammation in Balb/c mouse model assessed as reduction in mononuclear cell infiltration in skin at 10 mg/kg, IG preadministered with IMQ for 3 days followed by compound administration from day 4 and measured on day 14 by H and E staining based analysis; assay type: functional, organism-based; conditions: time 11.0 day
[17] = test system: Mus musculus; experiment: as §1, with “inflammatory” for “mononuclear”; assay type: functional, organism-based; conditions: time 11.0 day
[18] = test system: Mus musculus; experiment: Antiinflammatory activity against imiquimod-induced psoriasis-like skin inflammation in Balb/c mouse model assessed as attenuation of skin layer thickening at 10 mg/kg, IG preadministered with IMQ for 3 days followed by compound administration from day 4 and measured on day 14 by H and E staining based analysis; assay type: functional, organism-based; conditions: time 11.0 day
[19] = test system: Mus musculus; experiment: as §1, with “decrease” for “reduction”, “dermal telangiectasia” for “mononuclear cell infiltration in skin”; assay type: functional, organism-based; conditions: time 11.0 day
[20] = test system: Mus musculus; experiment: as §1, with “decrease” for “reduction”, “IL-17A expression” for “mononuclear cell infiltration”, “immunohistochemical” for “H and E staining based”; assay type: functional, organism-based; conditions: time 11.0 day
[21] = test system: Mus musculus; experiment: as §1, with “decrease” for “reduction”, “IL-17F expression” for “mononuclear cell infiltration”, “immunohistochemical” for “H and E staining based”; assay type: functional, organism-based; conditions: time 11.0 day
[22] = test system: Mus musculus; experiment: as §1, with “decrease” for “reduction”, “IL-23 expression” for “mononuclear cell infiltration”, “immunohistochemical” for “H and E staining based”; assay type: functional, organism-based; conditions: time 11.0 day
[23] = Toxicity in chicken type II collagen-induced arthritis DBA/1 mouse model assessed as behavioral abnormalities at 20 mg/kg/day, po measured after 42 days; assay type: organism-based; conditions: in vivo, 1008 h, time 42 day
[24] = Toxicity in chicken type II collagen-induced arthritis DBA/1 mouse model assessed as body weight loss at 20 mg/kg/day, po measured after 42 days; assay type: organism-based; conditions: in vivo, 1008 h, time 42 day
[25] = test system: Mus musculus; experiment: Antiarthritic activity in chicken type II collagen-induced arthritis DBA/1 mouse model assessed as reduction in clinical score at 20 mg/kg/day, po measured after 42 days; assay type: functional, organism-based; conditions: time 42.0 day
[26] = Toxicity in chicken type II collagen-induced arthritis DBA/1 mouse model assessed as increase in thymic cortex to medulla ratio at 20 mg/kg/day, po administered for 2 weeks by H and E staining based analysis; assay type: organism-based; conditions: in vivo, 336 h
[27] = Toxicity in chicken type II collagen-induced arthritis DBA/1 mouse model assessed as signs of thymic enlargement at 20 mg/kg/day, po administered for 2 weeks by H and E staining based analysis; assay type: organism-based; conditions: in vivo, 336 h
[28] = Toxicity in chicken type II collagen-induced arthritis DBA/1 mouse model assessed as signs of lymphoma at 20 mg/kg/day, po administered for 2 weeks by H and E staining based analysis; assay type: organism-based; conditions: in vivo, 336 h
[29] = Toxicity in chicken type II collagen-induced arthritis DBA/1 mouse model assessed as morphological changes in thymocytes at 20 mg/kg/day, po administered for 2 weeks by H and E staining based analysis; assay type: organism-based; conditions: in vivo, 336 h
[30] = test system: Mus musculus; experiment: Antiarthritic activity in chicken type II collagen-induced arthritis DBA/1 mouse model assessed as improvement in arthritic symptoms at 20 mg/kg/day, po administered for 2 weeks by H and E staining based analysis; assay type: functional, organism-based
[31] = test system: Mus musculus; experiment: Antiarthritic activity in chicken type II collagen-induced arthritis DBA/1 mouse model assessed as reduction in fore paw erythema at 20 mg/kg/day, po administered for 2 weeks by H and E staining based analysis; assay type: functional, organism-based
[32] = test system: Mus musculus; experiment: Antiarthritic activity in chicken type II collagen-induced arthritis DBA/1 mouse model assessed as reduction in fore paw swelling at 20 mg/kg/day, po administered for 2 weeks by H and E staining based analysis; assay type: functional, organism-based
[33] = test system: Mus musculus; experiment: Antiarthritic activity in chicken type II collagen-induced arthritis DBA/1 mouse model assessed as reduction in fore paw thickness at 20 mg/kg/day, po administered for 2 weeks by H and E staining based analysis; assay type: functional, organism-based
[34] = test system: Mus musculus; experiment: Antiarthritic activity in chicken type II collagen-induced arthritis DBA/1 mouse model assessed as reduction in hind paw erythema at 20 mg/kg/day, po administered for 2 weeks by H and E staining based analysis; assay type: functional, organism-based
[35] = test system: Mus musculus; experiment: Antiarthritic activity in chicken type II collagen-induced arthritis DBA/1 mouse model assessed as reduction in hind paw swelling at 20 mg/kg/day, po administered for 2 weeks by H and E staining based analysis; assay type: functional, organism-based
[36] = test system: Mus musculus; experiment: Antiarthritic activity in chicken type II collagen-induced arthritis DBA/1 mouse model assessed as reduction in hind paw thickness at 20 mg/kg/day, po administered for 2 weeks by H and E staining based analysis; assay type: functional, organism-based

IC50 [1]: 2.5 nM
IC50 [2]: 13.6 nM
half-life [3]: 3.81 h
Tmax [4]: 4.98 min
Cmax [5]: 1280 ng/mL
AUC(0-t) at 24 h [6]: 1270 ng·h/mL
AUC(0-inf) [7]: 1310 ng·h/mL
clearance [8]: 64.2 mL/min/kg
half-life [9]: 4.99 h
Tmax [10]: 0.417 h
Cmax [11]: 99.3 ng/mL
AUC(0-t) at 24 h [12]: 299 ng·h/mL
AUC(0-inf) [13]: 326 ng·h/mL
bioavailability [14]: 6.2%
Structure (SMILES): CCc1ccc(N(CC(C)C)S(=O)(=O)c2ccc(OCC3CCOCC3)c(CO)c2)cc1 [GSK2981278]
Activity [15]: Non-Toxic
Activity [16]: Active
Activity [17]: Active
Activity [18]: Active
Activity [19]: Active
Activity [20]: Active
Activity [21]: Active
Activity [22]: Active
Activity [23]: Non-Toxic
Activity [24]: Non-Toxic
Activity [25]: Active
Activity [26]: Toxic
Activity [27]: Non-Toxic
Activity [28]: Non-Toxic
Activity [29]: Non-Toxic
Activity [30]: Active
Activity [31]: Active
Activity [32]: Active
Activity [33]: Active
Activity [34]: Active
Activity [35]: Active
Activity [36]: Active

From ChEMBL document CHEMBL6127136, “Discovery of 1-(Phenylsulfonyl)-1,2,3,4-tetrahydroquinoline Derivative as Orally Bioavailable and Safe RORγt Inverse Agonists for Potential Treatment of Rheumatoid Arthritis” (J Med Chem, 2024)
